In article PMC7211195 (Investigational New Drugs, 2019):
Like-named read-outs stand apart in the source and are kept apart here.

Columns and labels:
[1] = Lapatinib pharmacokinetics in rat blood plasma (BP), HPLC-MS/MS, noncompartmental analysis; assay type: in vivo, rats; settings: for MRT last: read-out: MRT0-t
Procedure: This study was conducted on rats, which are a promising model to predict P-gp-based drug-drug interactions at the human BBB [15]. The animals were allowed to acclimate for one week before the beginning of the experiments. Adult male Wistar-strain rats (weight 470–525 g) were used in the study. The animals were maintained under standard breeding conditions with a 12/12 h light-dark cycle (lights on at 6.00 a.m., lights off at 6.00 p.m.) at constant room temperature (23 ± 2 °C), relative humidity (55 ± 10%) and ad libitum access to food and water. The experimental protocol for this study was reviewed and approved by the Local Ethics Committee. To obtain consistent data, the study was based on the required minimum number of animals and observation time. […] Three rats were used at each time point (n = 3). In total, the research was conducted on 66 animals (n = 33 in the experimental group and n = 33 in the control group).
Elacridar was freshly dissolved in a vehicle at an initial concentration of 20 mg/mL. […] A volume of 80 μL of blood was collected from each rat by cutting off a piece of its tail. The blood samples were collected into heparinized test tubes at the following time points: […], and they were immediately centrifuged at 2880 g for 10 min at 4 °C. The anaesthetized rats (anaesthetized by intramuscular administration of 50 mg/kg ketamine and 10 mg/kg xylazine) were prepared for cisterna magna puncture. The hair over the puncture was removed and the skin was disinfected with alcohol. The animals were placed in a recumbent position with an elevated rear part of the body. The animals’ heads were slightly flexed and immobilized with the operator’s left hand. The space between the occiput rostrally and the atlas (C1) of the spinal column caudally was gently palpated with the left thumb. A 0.7 × 20 G needle with polyethylene tubing (Terumo Poland, Warsaw, Poland) was gently inserted at an approximate angle of 80–90° through the skin with the operator’s right hand into the midsagittal region. The moment that dura mater perforation was perceptible, a small amount of CSF was found in the needle tubing. To sample additional CSF, a 1 mL insulin syringe (Becton Dickinson, Warsaw, Poland) was used to collect 80–120 μL of CSF by very gentle aspiration. Only clear CSF was collected for further analysis. […] The animals’ brains were immediately dissected, washed in 0.9% NaCl and divided along the longitudinal axis. One of the brain hemispheres was again rinsed three times with 5 mL of 0.9% NaCl, weighed and homogenized with 0.9% NaCl (4 mL per 1 g of BT) in an Ultra-Turrax homogenizer (Witko, Łódź, Poland). The homogenate was then centrifuged at 4500 g for 10 min. All samples of the rat BP, CSF, and BT homogenate supernatant were stored at −80 °C until analysis.
The chromatographic analysis was conducted using a 1260 Infinity system (Agilent Technologies, Santa Clara, USA) equipped with a Kinetex® C18 column (50 × 4.6 mm, 2.6 μm, Phenomenex, Torrance, USA), which was maintained at 35 °C. The mobile phase consisted of 0.1% formic acid (v/v) in water with 5 mM ammonium formate (solvent A) and acetonitrile with 10% phase A (v/v, solvent B). The analyte and internal standard (IS, erlotinib) were eluted using a gradient run of 10 min as follows: 95% A at 0–2 min; 95%–5% A at 2–4 min; 5% A at 4–5 min; 5%–95% A at 5–6 min; 95% A at 6–10 min. The flow rate and injection volume were set at 0.7 mL/min and 10 μL, respectively. The needle was washed for 30 s in a mixture of acetonitrile, methanol, isopropanol, water, and formic acid (50:20:15:15:0.25, v/v/v/v/v).

[2] = cited from earlier work
[3] = blood plasma, lapatinib 100 mg/kg oral + 5 mg/kg elacridar (IE+L)
[4] = male, Wistar, rat, plasma, oral, lapatinib 100 mg/kg + elacridar, read-out: Clapatinib in BP, S
[5] = male, Wistar, rat, plasma, oral, lapatinib 100 mg/kg + elacridar, read-out: Clapatinib in BP, single rat
[6] = male, Wistar, rat, plasma, po, 100 mg/kg, blood plasma, lapatinib 100 mg/kg oral + 5 mg/kg elacridar (IE+L)
[7] = male, Wistar, rat, plasma, po, 100 mg/kg, blood plasma, lapatinib 100 mg/kg oral alone (IIL)
[8] = male, Wistar, rat, plasma, po, 100 mg/kg, lapatinib p.o. 100 mg/kg alone, read-out: Clapatinib in BP, S (medium value)
[9] = male, Wistar, rat, plasma, po, 100 mg/kg, lapatinib p.o. 100 mg/kg alone, read-out: Clapatinib in BP, single rat

Compound: CS(=O)(=O)CCNCc1ccc(-c2ccc3ncnc(Nc4ccc(OCc5cccc(F)c5)c(Cl)c4)c3c2)o1 [lapatinib, N-{3-Chloro-4-[(3-fluorobenzyl)oxy]phenyl}-6-[5-({[2-(methylsulfonyl)ethyl]amino}methyl)-2-furyl]-4-quinazolinamine]
- plasma AUC0-t higher in IE+L than in IIL ([1]; BP, IE+L vs IIL group): 78.7%
- plasma AUC0-∞ higher in IE+L than in IIL ([1]; BP, IE+L vs IIL group): 155.6%
- plasma Cmax greater in IE+L than in IIL ([1]; BP, IE+L vs IIL group): 6.3%
- t0.5 prolongation when coadministered with elacridar ([1]; BP, IE+L vs IIL group): 5.2 fold
- Tmax [1, 3]: 2.50 ± 0.71 h
- t0.5 [1, 3]: 28.77 ± 6.00 h
- concentration of lapatinib after 24 h ([1]; each matrix sample (BP, CSF, BT), IIL group): undetectable
- concentration at 0.25 h [1, 4]: 780 ng/mL
- concentration at 0.25 h [1, 5]: 700 ng/mL
- concentration at 0.5 h [1, 4]: 1520 ng/mL
- concentration at 0.5 h [1, 5]: 1680 ng/mL
- concentration at 1 h [1, 4]: 1980 ng/mL
- concentration at 1 h [1, 5]: 2050 ng/mL
- concentration at 2 h [1, 4]: 3070 ng/mL
- concentration at 2 h [1, 5]: 2100 ng/mL
- concentration at 3 h [1, 4]: 2460 ng/mL
- concentration at 3 h [1, 5]: 2040 ng/mL
- concentration at 4 h [1, 4]: 1310 ng/mL
- concentration at 4 h [1, 5]: 1580 ng/mL
- concentration at 6 h [1, 4]: 1340 ng/mL
- concentration at 6 h [1, 5]: 1360 ng/mL
- concentration at 8 h [1, 4]: 1780 ng/mL
- concentration at 12 h [1, 4]: 2300 ng/mL
- concentration at 12 h [1, 5]: 2280 ng/mL
- concentration at 24 h [1, 4]: 1230 ng/mL
- concentration at 24 h [1, 5]: 1300 ng/mL
- Cmax ([1]; male, Wistar, rat, plasma, po, 100 mg/kg): 3260 ± 810 ng/mL
- AUC(0-inf) [1, 6]: 95100 ng·h/mL
- AUC(0-t) [1, 6]: 43600 ng·h/mL
- k el [1, 6]: 5.56e-06 s⁻¹
- MRT last [1, 6]: 11.1 ± 0.5 h
- AUC(0-inf) [1, 7]: 37200 ng·h/mL
- AUC(0-t) [1, 7]: 24400 ng·h/mL
- k el [1, 7]: 3.61e-05 s⁻¹
- MRT last [1, 7]: 5.7 ± 0.43 h
- concentration at 0.25 h [1, 8]: 650 ng/mL
- concentration at 0.25 h [1, 9]: 530 ng/mL
- concentration at 0.5 h [1, 8]: 1330 ng/mL
- concentration at 0.5 h [1, 9]: 1210 ng/mL
- concentration at 1 h [1, 8]: 2050 ng/mL
- concentration at 1 h [1, 9]: 1830 ng/mL
- concentration at 2 h [1, 8]: 2210 ng/mL
- concentration at 2 h [1, 9]: 1950 ng/mL
- concentration at 3 h [1, 8]: 2380 ng/mL
- concentration at 4 h [1, 8]: 3260 ng/mL
- concentration at 4 h [1, 9]: 3830 ng/mL
- concentration at 6 h [1, 8]: 1940 ng/mL
- concentration at 6 h [1, 9]: 1560 ng/mL
- concentration at 8 h [1, 8]: 1940 ng/mL
- concentration at 8 h [1, 9]: 2130 ng/mL
- concentration at 12 h [1, 8]: 1500 ng/mL
- Tmax ([1]; male, Wistar, rat, plasma, po, 100 mg/kg, read-out: tmax): 4 h
- binds with plasma proteins [2]: 99%
